Reference: PubChem BioAssay (NCI)
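Assay format: 96-well plates, 48-hour exposure. GI50: concentration for 50% inhibition of growth. The concentration for full growth arrest is given as TGI.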

Tests used:
Assay in all cases: NCI-60 cell line screen, 48 h
COLO 205 colon = test system: COLO 205 colon
SK-OV-3 ovarian = test system: SK-OV-3 ovarian
786-0 renal = test system: 786-0 renal
UACC-257 melanoma = test system: UACC-257 melanoma
NCI/ADR-RES ovarian = test system: NCI/ADR-RES ovarian
HT29 colon = test system: HT29 colon
SK-MEL-2 melanoma = test system: SK-MEL-2 melanoma
SNB-75 CNS = test system: SNB-75 CNS
A498 renal = test system: A498 renal
UACC-62 melanoma = test system: UACC-62 melanoma
IGROV1 ovarian = test system: IGROV1 ovarian
MDA-MB-231 breast = test system: MDA-MB-231 breast
TK-10 renal = test system: TK-10 renal
M14 melanoma = test system: M14 melanoma
LOX IMVI melanoma = test system: LOX IMVI melanoma
MOLT-4 leukemia = test system: MOLT-4 leukemia
CCRF-CEM leukemia = test system: CCRF-CEM leukemia
K-562 leukemia = test system: K-562 leukemia
SW-620 colon = test system: SW-620 colon
UO-31 renal = test system: UO-31 renal
OVCAR-5 ovarian = test system: OVCAR-5 ovarian
SK-MEL-28 melanoma = test system: SK-MEL-28 melanoma
HCT-116 colon = test system: HCT-116 colon
RXF 393 renal = test system: RXF 393 renal
A549 NSCLC = test system: A549 NSCLC
MCF7 breast = test system: MCF7 breast
T-47D breast = test system: T-47D breast
SF-268 CNS = test system: SF-268 CNS
SK-MEL-5 melanoma = test system: SK-MEL-5 melanoma
RPMI-8226 leukemia = test system: RPMI-8226 leukemia
ACHN renal = test system: ACHN renal
HL-60(TB) leukemia = test system: HL-60(TB) leukemia
CAKI-1 renal = test system: CAKI-1 renal
SN12C renal = test system: SN12C renal
U251 CNS = test system: U251 CNS
OVCAR-4 ovarian = test system: OVCAR-4 ovarian
PC-3 prostate = test system: PC-3 prostate
HS 578T breast = test system: HS 578T breast
KM12 colon = test system: KM12 colon
EKVX NSCLC = test system: EKVX NSCLC
OVCAR-8 ovarian = test system: OVCAR-8 ovarian
HOP-92 NSCLC = test system: HOP-92 NSCLC
NCI-H460 lung = test system: NCI-H460 lung
HCT-15 colon = test system: HCT-15 colon
OVCAR-3 ovarian = test system: OVCAR-3 ovarian
SR leukemia = test system: SR leukemia
BT-549 breast = test system: BT-549 breast
MALME-3M melanoma = test system: MALME-3M melanoma
HOP-62 NSCLC = test system: HOP-62 NSCLC
SF-295 CNS = test system: SF-295 CNS
SF-539 CNS = test system: SF-539 CNS
NCI-H522 lung = test system: NCI-H522 lung
SNB-19 CNS = test system: SNB-19 CNS
DU-145 prostate = test system: DU-145 prostate
MDA-MB-435 = test system: MDA-MB-435
NCI-H226 lung = test system: NCI-H226 lung
HCC-2998 colon = test system: HCC-2998 colon

## CC[C@H](CO)Nc1ccc2ncc(C#Cc3cncc(C(=O)Nc4ccc(CN5CCN(C)CC5)c(C(F)(F)F)c4)c3)n2n1
COLO 205 colon
  GI50: 126 nM
  TGI: 319 nM
SK-OV-3 ovarian
  GI50: 1190 nM
  TGI: 2780 nM
786-0 renal
  GI50: 362 nM
  TGI: 1080 nM
UACC-257 melanoma
  GI50: 760 nM
  TGI: 1530 nM
NCI/ADR-RES ovarian
  GI50: 5850 nM
  TGI: 13400 nM
HT29 colon
  GI50: 221 nM
  TGI: 933 nM
SK-MEL-2 melanoma
  GI50: 470 nM
  TGI: 1210 nM
SNB-75 CNS
  GI50: 48.4 nM
  TGI: 314 nM
A498 renal
  GI50: 266 nM
  TGI: 721 nM
UACC-62 melanoma
  GI50: 767 nM
  TGI: 1570 nM
IGROV1 ovarian
  GI50: 152 nM
  TGI: 835 nM
MDA-MB-231 breast
  GI50: 142 nM
  TGI: 903 nM
TK-10 renal
  GI50: 1000 nM
  TGI: 2450 nM
M14 melanoma
  GI50: 322 nM
  TGI: 1010 nM
LOX IMVI melanoma
  GI50: 206 nM
  TGI: 817 nM
MOLT-4 leukemia
  GI50: 239 nM
  TGI: 1940 nM
CCRF-CEM leukemia
  GI50: 188 nM
  TGI: 1370 nM
K-562 leukemia
  GI50: 15.8 nM
  TGI: 636 nM
SW-620 colon
  GI50: 186 nM
  TGI: 803 nM
UO-31 renal
  GI50: 940 nM
  TGI: 2140 nM
OVCAR-5 ovarian
  GI50: 553 nM
  TGI: 2070 nM
SK-MEL-28 melanoma
  GI50: 681 nM
  TGI: 1490 nM
HCT-116 colon
  GI50: 170 nM
  TGI: 662 nM
RXF 393 renal
  GI50: 273 nM
  TGI: 910 nM
A549 NSCLC
  GI50: 356 nM
  TGI: 1450 nM
MCF7 breast
  GI50: 163 nM
  TGI: 807 nM
T-47D breast
  GI50: 900 nM
  TGI: 2920 nM
SF-268 CNS
  GI50: 246 nM
  TGI: 1220 nM
SK-MEL-5 melanoma
  GI50: 766 nM
  TGI: 1460 nM
RPMI-8226 leukemia
  GI50: 577 nM
  TGI: 1800 nM
ACHN renal
  GI50: 442 nM
  TGI: 1130 nM
HL-60(TB) leukemia
  GI50: 218 nM
  TGI: 648 nM
CAKI-1 renal
  GI50: 349 nM
  TGI: 1110 nM
SN12C renal
  GI50: 160 nM
  TGI: 1030 nM
U251 CNS
  GI50: 580 nM
  TGI: 1310 nM
OVCAR-4 ovarian
  GI50: 507 nM
  TGI: 2540 nM
PC-3 prostate
  GI50: 670 nM
  TGI: 2800 nM
HS 578T breast
  GI50: 200 nM
  TGI: 1070 nM
KM12 colon
  GI50: 16.5 nM
  TGI: 1180 nM
EKVX NSCLC
  GI50: 391 nM
  TGI: 1620 nM
OVCAR-8 ovarian
  GI50: 589 nM
  TGI: 1320 nM
HOP-92 NSCLC
  GI50: 70 nM
  TGI: 307 nM
NCI-H460 lung
  GI50: 423 nM
  TGI: 1140 nM
HCT-15 colon
  GI50: 813 nM
  TGI: 2070 nM
OVCAR-3 ovarian
  GI50: 576 nM
  TGI: 1630 nM
SR leukemia
  GI50: 196 nM
  TGI: 888 nM
BT-549 breast
  GI50: 580 nM
  TGI: 1670 nM
MALME-3M melanoma
  GI50: 660 nM
  TGI: 1430 nM
HOP-62 NSCLC
  GI50: 288 nM
  TGI: 1090 nM
SF-295 CNS
  GI50: 555 nM
  TGI: 1600 nM
SF-539 CNS
  GI50: 45.4 nM
  TGI: 266 nM
NCI-H522 lung
  GI50: 238 nM
  TGI: 997 nM
SNB-19 CNS
  GI50: 880 nM
  TGI: 3280 nM
DU-145 prostate
  GI50: 579 nM
  TGI: 1430 nM
MDA-MB-435
  GI50: 451 nM
  TGI: 1090 nM
NCI-H226 lung
  GI50: 205 nM
  TGI: 1170 nM
HCC-2998 colon
  GI50: 703 nM
  TGI: 1690 nM
